Reference: BindingDB's records for patent US20230414632 (Centre National De La Recherche Scientifique, 2023)

Biological target: Lysine--tRNA ligase (Homo sapiens, UniProt Q15046)
Assay: Homogeneous Time-Resolved Fluorescence Assay
Experimental: Homogeneous time-resolved fluorescence (HTRF) assays were performed in black, half-area, flat bottom, 96-well microplates (Costar #3694). Human mitochondrial LysRS with a C-terminal HA-tag (mLysRS-HA), diluted in HTRF buffer (10 mM Tris-HCl pH 7.5, 50 mM NaCl, 10 mM 2-mercaptoethanol, BSA at 1 mg/ml) was added (20 μl at a dimer concentration of 3.75 nM) in the wells of microplates placed on ice. Compounds of formula I or II (1 μl of a 10 mM solution in DMSO) were then added to the wells, and mixing was achieved by pipetting up and down 3-times 10 μl. After centrifugation at 900 g for 1 min at 4° C., plates were placed at 4° C. on thermal modules of an epMotion 5075 v automated pipetting system (Eppendorf). A 10 μl sample of IN-H6 diluted in HTRF buffer at a dimer concentration of 250 nM was added and mixing was achieved by pipetting up and down 3-times 15 μl. Incubation was conducted at 4° C. for 1 h. A 10 μl aliquot of a mix of antibodies prepared in HTRF buffer, directed to the His-tag, conjugated with Eu3+ cryptate (Cisbio #61HISKLB, 0.125 μl per test, prepared as recommended by the supplier), and to the HA-tag, conjugated with XL665 (Cisbio #610HAXLB, 0.375 μl per test, prepared as recommended by the supplier), was added and mixing was achieved by pipetting up and down 3-times 15 μl. Incubation was conducted at 4° C. for 30 min.

Sequence of Lysine--tRNA ligase (Q15046 whole entry): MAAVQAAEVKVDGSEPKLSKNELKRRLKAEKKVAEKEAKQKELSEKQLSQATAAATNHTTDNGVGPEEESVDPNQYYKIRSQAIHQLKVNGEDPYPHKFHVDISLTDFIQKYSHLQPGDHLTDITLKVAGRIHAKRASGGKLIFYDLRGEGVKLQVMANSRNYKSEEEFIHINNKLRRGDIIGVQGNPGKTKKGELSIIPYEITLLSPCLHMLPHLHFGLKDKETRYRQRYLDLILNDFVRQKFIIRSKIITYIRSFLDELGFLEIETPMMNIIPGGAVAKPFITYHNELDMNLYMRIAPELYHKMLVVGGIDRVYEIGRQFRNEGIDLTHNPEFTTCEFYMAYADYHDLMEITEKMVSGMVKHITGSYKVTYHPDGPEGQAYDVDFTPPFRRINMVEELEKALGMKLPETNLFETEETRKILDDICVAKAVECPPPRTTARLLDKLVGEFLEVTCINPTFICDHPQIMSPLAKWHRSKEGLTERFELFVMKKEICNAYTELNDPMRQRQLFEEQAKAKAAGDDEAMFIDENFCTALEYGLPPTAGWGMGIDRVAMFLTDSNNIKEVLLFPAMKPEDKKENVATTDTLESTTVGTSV

Compound	IC50
CCOC(=O)C1=C(C)NC(C)=C(C(=O)OCC)C1c1ccccc1/C=C/C(=O)OC(C)(C)C [US20230414632, Compound I-a]	65 µM
COCCOC(=O)C1=C(C)NC(C)=C(C(=O)OC/C=C/c2ccccc2)C1c1cccc([N+](=O)[O-])c1 (stereo unspecified) [US20230414632, Compound I-b]	400 µM
COC(=O)C1=C(C)NC(C)=C(C(=O)OC(C)(C)CN(C)CCC(c2ccccc2)c2ccccc2)C1c1cccc([N+](=O)[O-])c1 (stereo unspecified) [US20230414632, Compound I-c]	320 µM
COC(=O)C1=C(C)NC(C)=C(C(=O)OCC(C)C)C1c1ccccc1[N+](=O)[O-] (stereo unspecified) [US20230414632, Compound I-e]	450 µM
COC(=O)C1=C(C)NC(C)=C(C(=O)OC2CCCN(Cc3ccccc3)C2)C1c1cccc([N+](=O)[O-])c1 (stereo unspecified) [US20230414632, Compound I-f]	450 µM
COC(=O)C1=C(C)NC(C)=C(C(=O)OCCN2CCN(C(c3ccccc3)c3ccccc3)CC2)C1c1cccc([N+](=O)[O-])c1 (stereo unspecified) [US20230414632, Compound I-g]	400 µM
